Experimental data from patent publication US20140094402A1, “Lantibiotic NAI-802, Pharmaceutically Acceptable Salts, Compositions and Uses Thereof” ([…] PHARMACEUTICALS, INC., priority 2011, published 2014).
≈ marks a conversion by molar mass, not a printed value. Like-named read-outs stand apart in the source and are kept apart here.

Assays:
[1] = system: Gram positive bacteria, including staphylococci and streptococci; experiment: In vitro antibacterial activity, summary statement; assay type: cell-based
[2] = system: Staphylococcus aureus Met-R
Streptococcus pyogenes [3] = system: Streptococcus pyogenes
Streptococcus pneumoniae [4] = system: Streptococcus pneumoniae
[5] = system: Enterococcus faecium VanS
[6] = system: Enterococcus faecium VanA
[7] = system: Enterococcus faecalis VanS
[8] = system: Enterococcus faecalis VanA
Moraxella catharralis [9] = system: Moraxella catharralis
Escherichia coli [10] = system: Escherichia coli
[11] = system: Candida albicans ATCC 90028; conditions: ATCC 90028, 48 h
Clostridium difficile [12] = system: Clostridium difficile
Clostridium butyricum [13] = conditions: 48 h
Clostridium perfrigens [14] = system: Clostridium perfrigens
[15] = system: Clostridium butyricum and Clostridium perfrigens
[16] = system: Peptstreptococcus asaccharolyticus; conditions: 48 h
[17] = system: Bacteroides fragilis ATCC 25285; conditions: ATCC 25285, 48 h
[18] = system: Staphylococcus aureus Met-S ATCC6538P; conditions: ATCC6538
[19] = system: Peptstreptococcus asaccharolyticus; experiment: organism not typed; conditions: 48 h, read-out: Minimal Inhibitory Concentration
[20] = system: Staphylococcus aureus Met-S ATCC6538P; experiment: microbe, parasite or virus in culture
[21] = system: Staphylococcus aureus Met-S ATCC19636; experiment: microbe, parasite or virus in culture
[22] = system: Staphylococcus aureus Met-R; experiment: microbe, parasite or virus in culture; conditions: read-out: Minimal Inhibitory Concentration
Streptococcus pyogenes [23] = experiment: microbe, parasite or virus in culture; conditions: read-out: Minimal Inhibitory Concentration
Streptococcus pneumoniae [24] = experiment: microbe, parasite or virus in culture; conditions: read-out: Minimal Inhibitory Concentration
[25] = system: Enterococcus faecium VanS; experiment: microbe, parasite or virus in culture
[26] = system: Enterococcus faecium VanA; experiment: microbe, parasite or virus in culture; conditions: read-out: Minimal Inhibitory Concentration
[27] = system: Enterococcus faecalis VanS; experiment: microbe, parasite or virus in culture
[28] = system: Enterococcus faecalis VanA; experiment: microbe, parasite or virus in culture; conditions: read-out: Minimal Inhibitory Concentration
Moraxella catharralis [29] = experiment: microbe, parasite or virus in culture; conditions: read-out: Minimal Inhibitory Concentration
Escherichia coli [30] = experiment: microbe, parasite or virus in culture; conditions: read-out: Minimal Inhibitory Concentration
[31] = system: Candida albicans ATCC 90028; experiment: microbe, parasite or virus in culture; conditions: ATCC90028, 48 h, read-out: Minimal Inhibitory Concentration
Clostridium difficile [32] = experiment: microbe, parasite or virus in culture; conditions: Clostridioides difficile, 48 h
Clostridium butyricum [33] = experiment: microbe, parasite or virus in culture; conditions: 48 h, read-out: Minimal Inhibitory Concentration
Clostridium perfrigens [34] = experiment: microbe, parasite or virus in culture; conditions: 48 h, read-out: Minimal Inhibitory Concentration
[35] = system: Bacteroides fragilis ATCC 25285; experiment: microbe, parasite or virus in culture; conditions: ATCC25285, 48 h, read-out: Minimal Inhibitory Concentration
[36] = range over codes 4013, 1365, 4015

CC[C@H](C)[C@@H]1NC(=O)C2NC(=O)[C@H](CC(C)C)NC(=O)C(NC(=O)C3CSCC(NC(=O)[C@H](C)N)C(=O)N[C@@H](CO)C(=O)NCC(=O)N[C@@H](Cc4c[nH]c5ccccc45)C(=O)N[C@@H](C(C)C)C(=O)N3)C(C)SCC(NC(=O)[C@H](CCC(=O)O)NC1=O)C(=O)NCC(=O)NC1C(=O)N[C@@H](C(C)C)C(=O)N[C@@H]([C@@H](C)CC)C(=O)NC(CSC2C)C(=O)N[C@@H](C)C(=O)NC(C(=O)N[C@@H](CCCNC(=N)N)C(=O)O)C[S+]([O-])C1C (some centres unmarked) [NAI-802]
antibacterial activity against Gram positive bacteria ([1]; including staphylococci and streptococci): antibacterial activity against Gram positive bacteria
Minimal Inhibitory Concentration [2]: 32 mg/L
Minimal Inhibitory Concentration (Streptococcus pyogenes [3]): 0.5 mg/L
Minimal Inhibitory Concentration (Streptococcus pneumoniae [4]): 8 mg/L
Minimal Inhibitory Concentration [5]: >128 mg/L
Minimal Inhibitory Concentration [6]: 128 mg/L
Minimal Inhibitory Concentration [7]: 128 mg/L
Minimal Inhibitory Concentration [8]: 128 mg/L
Minimal Inhibitory Concentration (Moraxella catharralis [9]): 64 mg/L
Minimal Inhibitory Concentration (Escherichia coli [10]): >128 mg/L
Minimal Inhibitory Concentration [11]: >128 mg/L
Minimal Inhibitory Concentration, range (Clostridium difficile [12]): 0.25 to 2 mg/L
Minimal Inhibitory Concentration (Clostridium butyricum [13]): 0.25 mg/L
Minimal Inhibitory Concentration (Clostridium perfrigens [14]; 48 h): 2 mg/L
Minimal Inhibitory Concentration, range [15]: 0.25 to 2 mg/L
Minimal Inhibitory Concentration [16]: 1 mg/L
Minimal Inhibitory Concentration [17]: >128 mg/L

CC[C@H](C)[C@@H]1NC(=O)C2NC(=O)[C@H](CC(C)C)NC(=O)C(NC(=O)C3CSCC(NC(=O)[C@H](C)N)C(=O)N[C@@H](CO)C(=O)NCC(=O)N[C@@H](Cc4c[nH]c5ccccc45)C(=O)N[C@@H](C(C)C)C(=O)N3)C(C)SCC(NC(=O)[C@H](CCC(=O)O)NC1=O)C(=O)NCC(=O)NC1C(=O)N[C@@H](C(C)C)C(=O)N[C@@H]([C@@H](C)CC)C(=O)NC(CSC2C)C(=O)N[C@@H](C)C(=O)NC(C(=O)N[C@@H](CCCNC(=N)N)C(=O)NCCN)C[S+]([O-])C1C (some centres unmarked) [NAI-802 monoamide with ethylendiamine]
antibacterial activity compared to native NAI-802 ([1]; against certain organisms): more antibacterial active
Minimal Inhibitory Concentration [18]: 4 mg/L
Minimal Inhibitory Concentration [2]: 8 mg/L
Minimal Inhibitory Concentration (Streptococcus pyogenes [3]; code 49, Todd Hewitt broth): ≦0.125 mg/L
Minimal Inhibitory Concentration (Streptococcus pneumoniae [4]): 2 mg/L
Minimal Inhibitory Concentration [5]: 32 mg/L
Minimal Inhibitory Concentration [6]: 16 mg/L
Minimal Inhibitory Concentration [7]: 32 mg/L
Minimal Inhibitory Concentration [8]: 32 mg/L
Minimal Inhibitory Concentration (Moraxella catharralis [9]): 32 mg/L
Minimal Inhibitory Concentration (Escherichia coli [10]): >128 mg/L
Minimal Inhibitory Concentration [11]: >128 mg/L
Minimal Inhibitory Concentration (Clostridium difficile [12]; code 4013, anaerobic, 48 hours): ≦0.125 mg/L
Minimal Inhibitory Concentration, range (Clostridium difficile [12]; [36]): ≦0.125-1 mg/L
Minimal Inhibitory Concentration (Clostridium butyricum [13]): 1 mg/L
Minimal Inhibitory Concentration, range [15]: 1 to 8 mg/L
Minimal Inhibitory Concentration [16]: 0.5 mg/L
Minimal Inhibitory Concentration [17]: >128 mg/L

CN[C@H](CC(C)C)C(=O)N[C@H]1C(=O)N[C@@H](CC(N)=O)C(=O)N[C@H]2C(=O)N[C@H]3C(=O)N[C@H](C(=O)N[C@H](C(=O)O)c4cc(O)cc(O)c4-c4cc3ccc4O)[C@H](O)c3ccc(c(Cl)c3)Oc3cc2cc(c3O[C@@H]2O[C@H](CO)[C@@H](O)[C@H](O)[C@H]2O[C@H]2C[C@](C)(N)[C@H](O)[C@H](C)O2)Oc2ccc(cc2Cl)[C@H]1O [VA, vancomycin]
Minimal Inhibitory Concentration (Moraxella catharralis [9]; code 3294): >128 mg/L
Minimal Inhibitory Concentration, range (Clostridium difficile [12]; [36]): 0.25 to 0.5 mg/L
Minimal Inhibitory Concentration (Clostridium perfrigens [14]; code 3607, anaerobic, 48 hours): 1 mg/L
Minimal Inhibitory Concentration, range [15]: 1 mg/L
MIC [19]: 0.5 µg/mL (≈ 0.345 µM)
MIC ([20]; read-out: Minimal Inhibitory Concentration, code 100, +30% bovine serum): 1 µg/mL (≈ 0.69 µM)
MIC ([20]; read-out: Minimal Inhibitory Concentration, code 100, CAMHB): 0.25 µg/mL (≈ 0.173 µM)
MIC ([21]; ATCC19636, read-out: Minimal Inhibitory Concentration, code 819, +30% bovine serum): 1 µg/mL (≈ 0.69 µM)
MIC ([21]; ATCC19636, read-out: Minimal Inhibitory Concentration, code 819, CAMHB): 0.5 µg/mL (≈ 0.345 µM)
MIC [22]: 0.5 µg/mL (≈ 0.345 µM)
MIC (Streptococcus pyogenes [23]): 0.25 µg/mL (≈ 0.173 µM)
MIC (Streptococcus pneumoniae [24]): 0.5 µg/mL (≈ 0.345 µM)
MIC ([25]; read-out: Minimal Inhibitory Concentration, code 568): 2 µg/mL (≈ 1.38 µM)
MIC ([25]; read-out: Minimal Inhibitory Concentration, code 568, +30% bovine serum): 4 µg/mL (≈ 2.76 µM)
MIC [26]: > 128 µg/mL
MIC ([27]; read-out: Minimal Inhibitory Concentration, code 559): 1 µg/mL (≈ 0.69 µM)
MIC ([27]; read-out: Minimal Inhibitory Concentration, code 559, +30% bovine serum): 2 µg/mL (≈ 1.38 µM)
MIC [28]: > 128 µg/mL
MIC (Moraxella catharralis [29]): > 128 µg/mL
MIC (Escherichia coli [30]): > 128 µg/mL
MIC [31]: > 128 µg/mL
MIC (Clostridium difficile [32]; read-out: Minimal Inhibitory Concentration, code 1365, anaerobic): 0.5 µg/mL (≈ 0.345 µM)
MIC (Clostridium difficile [32]; read-out: Minimal Inhibitory Concentration, code 4013, anaerobic): 0.25 µg/mL (≈ 0.173 µM)
MIC (Clostridium difficile [32]; read-out: Minimal Inhibitory Concentration, code 4015, anaerobic): 0.25 µg/mL (≈ 0.173 µM)
MIC (Clostridium butyricum [33]): 1 µg/mL (≈ 0.69 µM)
MIC (Clostridium perfrigens [34]): 1 µg/mL (≈ 0.69 µM)
MIC [35]: 32 µg/mL (≈ 22.1 µM)
